The values below are quoted from earlier work in patent publication US9636301B2, “In vitro release assay for liposome encapsulated vincristine” (ARBUTUS BIOPHARMA CORPORATION, priority 2012, dated 2017).

The conditions of the series: water.

Consider “22-oxovincaleukoblastine [Vincristine sulfate]”, for which the solubility result is “soluble in water”.
